The test has as its target T1, Inhibitor of nuclear factor kappa-B kinase subunit beta (Homo sapiens, UniProt O14920).
T1 sequence (O14920 whole entry): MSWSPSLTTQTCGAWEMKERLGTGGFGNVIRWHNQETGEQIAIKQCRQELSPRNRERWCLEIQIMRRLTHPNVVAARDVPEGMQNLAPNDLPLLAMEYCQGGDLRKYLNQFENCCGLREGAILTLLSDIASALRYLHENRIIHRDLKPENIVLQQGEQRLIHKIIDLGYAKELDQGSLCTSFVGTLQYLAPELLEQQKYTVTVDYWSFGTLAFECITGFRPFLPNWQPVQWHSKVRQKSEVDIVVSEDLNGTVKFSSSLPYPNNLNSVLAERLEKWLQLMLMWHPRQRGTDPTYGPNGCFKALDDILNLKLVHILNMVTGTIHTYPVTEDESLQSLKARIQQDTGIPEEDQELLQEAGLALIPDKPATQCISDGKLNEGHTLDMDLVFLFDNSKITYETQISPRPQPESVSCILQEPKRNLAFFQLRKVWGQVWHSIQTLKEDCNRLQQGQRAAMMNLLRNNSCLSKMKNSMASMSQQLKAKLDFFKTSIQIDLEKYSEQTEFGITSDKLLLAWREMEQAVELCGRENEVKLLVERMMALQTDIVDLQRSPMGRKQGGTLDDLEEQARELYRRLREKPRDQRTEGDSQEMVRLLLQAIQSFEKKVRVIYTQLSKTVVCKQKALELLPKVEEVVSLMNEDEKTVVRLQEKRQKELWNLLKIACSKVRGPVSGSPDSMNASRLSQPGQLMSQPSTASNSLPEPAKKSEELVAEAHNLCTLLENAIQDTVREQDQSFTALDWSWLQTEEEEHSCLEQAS
The test can be described thus: Inhibition of human recombinant C-terminal FLAG-epitope-tagged IKK2 expressed in baculovirus using biotinylated IkappaBalpha peptide as substrate assessed as decrease in [gamma-33P]-ATP incorporation in substrate after 30 mins by scintillation counting method.

For `NC(=O)c1nn(-c2ccc(Cl)cc2)c2c1CCc1ccc(NC(=O)c3ccccc3Cl)cc1-2`, the 50% inhibitory concentration (IC50) was ≤ 1000 nM.
The same measure for `CC(C)(O)/C=C/c1ccc(-n2nc(C(N)=O)c3c2-c2cc(NC(=O)c4cccnc4Cl)ccc2CC3)cc1`: 1000 to 10000 nM.
The same measure for `NC(=O)c1nn(-c2ccc(S(N)(=O)=O)cc2)c2c1CCc1ccc(NC(=O)c3cccc(Cl)c3)cc1-2`: ≤ 1000 nM; for `NC(=O)c1nn(-c2ccc3c(c2)OCO3)c2c1CCc1ccc(NC(=O)CNC3CCCCC3)cc1-2`: 1000 to 10000 nM.
Turning to `NC(=O)c1nn(-c2ccc(S(N)(=O)=O)cc2)c2c1CCc1ccc(NC(=O)c3ccc(Cl)cc3)cc1-2`, the 50% inhibitory concentration (IC50) is ≤ 1000 nM.
In the case of `NC(=O)c1nn(-c2ccc(-c3cccc(N)c3)cc2)c2c1CCc1ccc(NC(=O)c3ccccc3Cl)cc1-2` it was 1000 to 10000 nM.
The same measure for `NC(=O)c1nn(-c2ccc3c(c2)OCO3)c2c1CCc1ccc(NC(=O)c3ccccc3OC(F)(F)F)cc1-2`: 1000 to 10000 nM; for `C=CCN(CC=C)S(=O)(=O)c1ccc(-n2nc(C(N)=O)c3c2-c2cc(N)ccc2CC3)cc1`: 1000 to 10000 nM.
In the case of `CN1CCN(c2cc(C(=O)Nc3ccc4c(c3)-c3c(c(C(N)=O)nn3-c3ccc(F)cc3)CC4)c(Cl)cn2)CC1` it was ≤ 1000 nM; in that of `NC(=O)c1nn(-c2ccc(S(=O)(=O)N3CC=CC3)cc2)c2c1CCc1ccc(N)cc1-2`, 1000 to 10000 nM; in that of `NC(=O)c1nn(-c2ccc(S(N)(=O)=O)cc2)c2c1CCc1ccc(NC(=O)c3ccc(F)cc3)cc1-2`, ≤ 1000 nM.
As to `Cc1ccccc1C(=O)Nc1ccc2c(c1)-c1c(c(C(N)=O)nn1-c1ccc(S(N)(=O)=O)cc1)CC2`, the 50% inhibitory concentration (IC50) was ≤ 1000 nM.
In the case of `NC(=O)c1nn(-c2ccc(NC(=O)c3ccccc3)cc2)c2c1CCc1ccc(NC(=O)c3ccccc3Cl)cc1-2` it was 1000 to 10000 nM.
In the case of `N#Cc1cccc(C(=O)Nc2ccc3c(c2)-c2c(c(C(N)=O)nn2-c2ccc(S(N)(=O)=O)cc2)CC3)c1` it was ≤ 1000 nM; in that of `NC(=O)c1nn(-c2ccc(CCCO)cc2)c2c1CCc1ccc(NC(=O)c3cccnc3Cl)cc1-2`, ≤ 1000 nM; in that of `NC(=O)c1nn(-c2cc(F)cc(F)c2)c2c1CCc1ccc(NC(=O)c3ccccc3Cl)cc1-2`, ≤ 1000 nM.
In the case of `Cn1cnc(S(=O)(=O)Nc2ccc3c(c2)-c2c(c(C(N)=O)nn2-c2ccc(S(N)(=O)=O)cc2)CC3)c1` it was 10000 to 100000 nM; in that of `N#Cc1ccc(C(=O)Nc2ccc3c(c2)-c2c(c(C(N)=O)nn2-c2ccc4c(c2)OCO4)CC3)cc1`, 1000 to 10000 nM; in that of `NC(=O)c1nn(-c2cc(F)c(N)cc2F)c2c1CCc1ccc(NC(=O)c3ccncc3Cl)cc1-2`, ≤ 1000 nM.
As for `COc1ccc(CNc2ccc3c(c2)-c2c(c(C(N)=O)nn2-c2ccc(S(N)(=O)=O)cc2)CC3)cc1`, the half-inhibitory concentration (IC50) was in the range of 1000 to 10000 nM.
Regarding `CS(=O)(=O)c1ccc(-n2nc(C(N)=O)c3c2-c2cc(NC(=O)C4CCC4)ccc2CC3)cc1`, the IC50 lay within 1000 to 10000 nM.
As for `CN1CCN(c2ncc(Cl)c(C(=O)Nc3ccc4c(c3)-c3c(c(C(N)=O)nn3-c3ccc(F)cc3)CC4)n2)CC1`, the IC50 was ≤ 1000 nM.
In the case of `CN(C)CCNS(=O)(=O)c1ccc(-n2nc(C(N)=O)c3c2-c2cc(NC(=O)c4ccccc4Cl)ccc2CC3)cc1` it was ≤ 1000 nM; in that of `NCc1ccc(Cl)c(C(=O)Nc2ccc3c(c2)-c2c(c(C(N)=O)nn2-c2ccc4c(c2)OCO4)CC3)n1`, 1000 to 10000 nM; in that of `NC(=O)c1nn(-c2ccc(S(=O)(=O)N3CCOCC3)cc2)c2c1CCc1ccc(N)cc1-2`, 1000 to 10000 nM.
In the case of `NC(=O)c1nn(-c2ccc(S(N)(=O)=O)cc2)c2c1CCc1ccc(NS(=O)(=O)CC(F)(F)F)cc1-2` it was 1000 to 10000 nM.
In the case of `CCS(=O)(=O)c1ccc(-n2nc(C(N)=O)c3c2-c2cc(N)ccc2CC3)cc1` it was 1000 to 10000 nM; in that of `NC(=O)c1nn(-c2ccc(S(N)(=O)=O)cc2)c2c1CCc1ccc(NCc3ccccc3)cc1-2`, 1000 to 10000 nM; in that of `NC(=O)c1nn(-c2ccc(S(N)(=O)=O)cc2)c2c1CCc1ccc(NC(=O)c3ccccc3)cc1-2`, 1000 to 10000 nM.
With `NC(=O)c1nn(-c2ccc(OCC(O)CO)cc2)c2c1CCc1ccc(NC(=O)c3cccnc3Cl)cc1-2` (stereo not drawn), the 50% inhibitory concentration (IC50) was ≤ 1000 nM.
The same measure for `NC(=O)c1nn(-c2ccc(S(N)(=O)=O)cc2)c2c1CCc1ccc(NC(=O)c3cccc(C(F)(F)F)c3)cc1-2`: 1000 to 10000 nM; for `NC(=O)c1nn(-c2ccc(OCc3ccccc3)cc2)c2c1CCc1ccc(NC(=O)c3cccnc3Cl)cc1-2`: 1000 to 10000 nM; for `CC1Cc2c(C(N)=O)nn(-c3ccc(F)cc3F)c2-c2cc(NC(=O)c3ccncc3Cl)ccc21` (stereo not drawn): ≤ 1000 nM.
In the case of `NC(=O)c1nn(-c2ccc(Cl)c(Cl)c2)c2c1CCc1ccc(NC(=O)c3ccccc3Cl)cc1-2` it was 1000 to 10000 nM.
In the case of `CC(C)c1ccc(-n2nc(C(N)=O)c3c2-c2cc(NC(=O)c4ccccc4Cl)ccc2CC3)cc1` it was 1000 to 10000 nM.
As for `Cc1c(C(=O)Nc2ccc3c(c2)-c2c(c(C(N)=O)nn2-c2ccc(S(C)(=O)=O)cc2)CC3)cccc1[N+](=O)[O-]`, the 50% inhibitory concentration (IC50) fell in the range of 1000 to 10000 nM.
In the case of `NC(=O)c1nn(-c2ccc(-n3cccc3)cc2)c2c1CCc1ccc(NC(=O)c3ccccc3Cl)cc1-2` it was 1000 to 10000 nM.
The same measure for `COc1ccc(CNc2ncccc2C(=O)Nc2ccc3c(c2)-c2c(c(C(N)=O)nn2-c2ccc4c(c2)OCO4)CC3)cc1`: 10000 to 100000 nM; for `NCCCS(=O)(=O)c1ccc(-n2nc(C(N)=O)c3c2-c2cc(NC(=O)c4cccnc4Cl)ccc2CC3)cc1`: 1000 to 10000 nM; for `C[S+]([O-])c1ccc(-n2nc(C(N)=O)c3c2-c2cc(NC(=O)c4ccccc4Cl)ccc2CC3)cc1` (stereo not drawn): ≤ 1000 nM.
In the case of `CS(=O)(=O)c1ncc(Cl)c(C(=O)Nc2ccc3c(c2)-c2c(c(C(N)=O)nn2-c2ccc4c(c2)OCO4)CC3)n1` it was ≤ 1000 nM; in that of `NC(=O)c1nn(-c2ccc(F)cc2)c2c1CCc1ccc(NC(=O)c3ccncc3)cc1-2`, 1000 to 10000 nM.
For `NC(=O)c1nn(-c2ccc(S(N)(=O)=O)cc2)c2c1CCc1ccc(NS(=O)(=O)c3ccccc3Cl)cc1-2`, the IC50 was 10000 to 100000 nM.
In the case of `NC(=O)c1nn(-c2cccc(F)c2)c2c1CCc1ccc(NC(=O)c3cccc(F)c3F)cc1-2` it was 1000 to 10000 nM; in that of `NC(=O)c1nn(-c2ccc(OCC(O)CO)cc2)c2c1CCc1ccc(NC(=O)c3cc(N)ccc3Cl)cc1-2` (stereo not drawn), ≤ 1000 nM; in that of `NC(=O)c1nn(-c2ccc(F)cc2)c2c1CCc1ccc(NC(=O)c3nc(N4CCOCC4)ccc3Cl)cc1-2`, 1000 to 10000 nM.
The same measure for `NC(=O)c1nn(-c2cc(F)c(N)c(F)c2)c2c1CCc1ccc(NC(=O)c3ccncc3Cl)cc1-2`: ≤ 1000 nM.
Consider `CSc1ncc(Cl)c(C(=O)Nc2ccc3c(c2)-c2c(c(C(N)=O)nn2-c2ccc4c(c2)OCO4)CC3)n1`, for which the IC50 is ≤ 1000 nM.
The same measure for `NC(=O)c1nn(-c2ccc(S(N)(=O)=O)cc2)c2c1CCc1ccc(NS(=O)(=O)c3cc(Cl)c(Cl)cc3Cl)cc1-2`: 1000 to 10000 nM; for `CS(=O)(=O)c1ccc(-n2nc(C(N)=O)c3c2-c2cc(NC(=O)[C@@H](N)Cc4c[nH]cn4)ccc2CC3)cc1`: 1000 to 10000 nM; for `Cc1cccc(C(=O)Nc2ccc3c(c2)-c2c(c(C(N)=O)nn2-c2ccc(S(C)(=O)=O)cc2)CC3)c1C`: 1000 to 10000 nM.
`CS(=O)(=O)c1ccc(C(=O)Nc2ccc3c(c2)-c2c(c(C(N)=O)nn2-c2ccc(OCC(O)CO)cc2)CC3)c(Cl)c1` (stereo not drawn): the 50% inhibitory concentration (IC50) was ≤ 1000 nM.
In the case of `CN(C)CCNS(=O)(=O)c1ccc(-n2nc(C(N)=O)c3c2-c2cc(N)ccc2CC3)cc1` it was 1000 to 10000 nM.

For orientation: IC50 means the concentration that gives 50% inhibition.

The record behind these values is ChEMBL document CHEMBL3879881, “Substituted pyrazolyl compounds for the treatment of inflammation” (2005).
